Laboratory results: patent US12384817B2, “Peptide having protective activity against cell damage caused by particulate matter, and uses for same” (CAREGEN CO., LTD., priority 2020, dated 2025)
No end group written: not given here.

Legend:
[1] = tested on: cytochrome P450; test: Cytochrome P450 activity in particulate matter-treated A549 cells (P450-Glo Assay); assay type: cell-based; conditions: A549 human alveolar epithelial cells; peptide pretreatment 1 hour at 20, 100, 200 μM; then 50 μg/cm^2 urban particulate matter 24 hours; FIG. 4
Protocol: In addition, in order to confirm whether the peptide can suppress respiratory damage caused by particulate matter, an experiment for measuring the activity of cytochrome P450 was also performed on A549 cells, which are human alveolar epithelial cells.
(§1) First, human alveolar epithelial cells, A549 cells were seeded into a 96-well plate at a density of 1.2×10^4 cells/well. After overnight incubation, the media were replaced with serum-free media. The alveolar epithelial cells, A549 cells were pretreated with the synthesized peptides for 1 hour at each concentration (20 μM, 100 μM, and 200 μM). Then, the cells were treated with 50 μg/cm^2 of urban particulate matter (Sigma, NIST1648A) for 24 hours. After the treated cells were collected, the activity of cytochrome P450 was measured using P450-Glo™ Assay kit (Promega).

[2] = tested on: cytochrome P450; test: Cytochrome P450 activity in particulate matter-treated HaCaT cells (P450-Glo Assay); assay type: cell-based; conditions: HaCaT human keratinocytes; peptide pretreatment 1 hour at 20, 100, 200 μM; then 50 μg/cm^2 urban particulate matter 24 hours; FIG. 3
Text: When polyaromatic hydrocarbons (PAHs) present in particulate matter penetrate into cells and bind to AHR, it promotes nuclear translocation of AHR. It is known that the AHR translocated into the nucleus forms a complex AHR/ARNT with an AHR nuclear translocator (ARNT), and this complex act as a transcription factor to promote the expression of cytochrome P450 (CYPs). In order to confirm the effect of the synthesized peptide in inhibiting cell damage caused by particulate matter, an experiment was performed for confirming whether the peptide inhibits the activity of cytochrome P450 after the cells were treated with particulate matter.
as §1, with “First, HaCaT cells, which are” for “First,”, “human keratinocytes,” for “human alveolar epithelial cells, A549 cells”, “of 1×10^4” for “of 1.2×10^4”, “The keratinocytes, HaCaT” for “The alveolar epithelial cells, A549 cells”, “the keratinocytes” for “the treated cells”

SSNAEVLALF [SEQ ID NO: 1, SSNAEVLALF]
activity of cytochrome P450 increased by the treatment of particulate matter [1]: reduced in a concentration dependent manner
activity of cytochrome P450 increased by the treatment of particulate matter [2]: reduced in a concentration dependent manner
